Results taken from US8288375B2, “Fungicidal bicyclic pyrazoles” (E.I. du Pont de Nemours and Company, priority 2007, dated 2012).
Marks after values point to notes of the source that are not given here.

Experiments:
Format in all cases: in vivo
[1] = system: Erysiphe graminis f. sp. tritici; assay: Test A: wheat powdery mildew, test suspension sprayed on wheat seedlings, disease rating; details: 200 ppm test suspension, 100 = 100% disease control, 0 = no control; for pest or weed control at 200 ppm: Blumeria graminis, 192 h
[2] = system: Puccinia recondite f sp. tritici; assay: Test B: wheat leaf rust, test suspension sprayed on wheat seedlings, disease rating; details: 40 ppm test suspension (*); for pest or weed control at 40 ppm: Puccinia, 192 h;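 for all read-outs here: 200 ppm unless marked * meaning 40 ppm or ** meaning 10 ppm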
[3] = system: Fusarium graminearum; assay: whole plant or invertebrate; details: for pest or weed control at 40 ppm: Fusarium graminearum, in Triticum aestivum, 192 h, read-out: Test C disease control rating; for Test C disease control rating: 40 ppm test suspension (*)
[4] = system: Septoria nodorum; assay: Test D: wheat glume blotch, test suspension sprayed on wheat seedlings, disease rating; details: 200 ppm test suspension; for pest or weed control at 200 ppm: Parastagonospora nodorum, 216 h
[5] = system: Septoria tritici; assay: Test E: wheat leaf blotch, test suspension sprayed on wheat seedlings, disease rating;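 note: 200 ppm unless marked * meaning 40 ppm or ** meaning 10 ppm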
[6] = system: Colletotrichum orbiculare; assay: Test F: cucumber Colletotrichum anthracnose, test suspension sprayed on cucumber seedlings, disease rating
[7] = system: Alternaria solani; assay: Test G: tomato early blight, test suspension sprayed on seedlings, disease rating; details: for pest or weed control at 10 ppm: 10 ppm test suspension (**);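 for all read-outs here: 200 ppm unless marked * meaning 40 ppm or ** meaning 10 ppm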
[8] = system: Phytophthora infestans; assay: whole plant or invertebrate; details: for Test J disease control rating: 40 ppm test suspension (*)
[9] = system: Pythium aphanidermatum; assay: Test L: bluegrass pythium blight, test suspension sprayed on bluegrass seedlings, disease rating;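 note: 200 ppm unless marked * meaning 40 ppm or ** meaning 10 ppm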
[10] = system: Botrytis cinerea; assay: Test H: tomato Botrytis, test suspension sprayed on tomato seedlings, disease rating; details: 200 ppm test suspension; for pest or weed control at 200 ppm: Botrytis cinerea, 120 h
[11] = system: Rhizoctonia oryzae; assay: Test I: turf brown patch, test suspension sprayed on creeping bent grass seedlings, disease rating; details: 200 ppm test suspension; for pest or weed control at 200 ppm: Waitea circinata, in Agrostis stolonifera, 120 h
[12] = Phytophthora infestans, in Solanum lycopersicum, 120 h, read-out: Test J disease control rating

Row | SMILES | Test A disease control rating [1] | Test C disease control rating [3] | Test D disease control rating [4] | Test E disease control rating ([5]; 40 ppm test suspension (*)) | Test F disease control rating ([6]; 200 ppm test suspension) | Test G disease control rating ([7]; 40 ppm test suspension (*)) | Test H disease control rating [10] | Test I disease control rating [11] | Test J disease control rating [8] | Test L disease control rating ([9]; 40 ppm test suspension (*)) | Test B disease control rating [2] | further results
1 | c1ccc(-c2nn3c(c2-c2ccnc(NC4CC4)n2)CCCC3)cc1 [Compound 27, N-cyclopropyl-4-(4,5,6,7-tetrahydro-2-phenylpyrazolo[1,5-a]pyridin-3-yl)-2-pyrimidinamine] | – | – | – | – | – | – | – | – | – | – | – | pest or weed control at 200 ppm [1]: 96%; pest or weed control at 40 ppm [2]: 95%; pest or weed control at 40 ppm [3]: 99%; pest or weed control at 200 ppm [4]: 98%; pest or weed control at 200 ppm ([5]; Zymoseptoria tritici, 504 h, 200 ppm test suspension): 97%; pest or weed control at 10 ppm ([6]; Colletotrichum orbiculare, 144 h, 10 ppm test suspension (**)): 66%; pest or weed control at 10 ppm ([7]; Alternaria solani, 168 h): 95%; pest or weed control at 200 ppm [8, 12]: 97%; pest or weed control at 200 ppm ([9]; Pythium aphanidermatum, 120 h, 200 ppm test suspension): 98%
2 | CC(=O)N1CCCc2c(-c3ccnc(NC4CC4)n3)c(-c3ccc(F)cc3)nn21 [Compound 134, 1-[3-[2-(cyclopropylamino)-4-pyrimidinyl]-2-(4-fluorophenyl)-5,6-dihydropyrazolo[1,5-b]pyridazin-7(4H)-yl]ethanone] | – | – | – | – | – | – | – | – | – | – | – | pest or weed control at 200 ppm [1]: 91%; pest or weed control at 40 ppm [2]: 85%; pest or weed control at 40 ppm [3]: 84%; pest or weed control at 200 ppm [4]: 96%; pest or weed control at 10 ppm ([5]; Zymoseptoria tritici, 504 h, 10 ppm test suspension (**)): 77%; pest or weed control at 40 ppm ([6]; Colletotrichum orbiculare, 144 h, 40 ppm test suspension (*)): 99%; pest or weed control at 10 ppm ([7]; Alternaria solani, 168 h): 98%; pest or weed control at 200 ppm [10]: 53%; pest or weed control at 200 ppm [11]: 24%; pest or weed control at 10 ppm [8, 12]: 90%; pest or weed control at 40 ppm ([9]; Pythium aphanidermatum, 120 h, 40 ppm test suspension (*)): 100%
3 | CC(CN(C)C)Nc1nccc(-c2c(-c3ccc(F)cc3)nn3c2CCCC3)n1 (centres unmarked) [compound 77] | 82% | 92* % | 49% | 0* % | 0% | 0* % | 29% | 0% | 40* % | 0* % | – | –
4 | CC(=O)N1CCCc2c(-c3ccnc(NC4CCOCC4)n3)c(-c3ccc(F)cc3)nn21 [Compound 139] | 73% | 95* % | 99% | 29* % | – | 99* % | 0% | 40% | 93* % | 100* % | 90* % | –
5 | Fc1ccc(-c2nn3c(c2-c2ccnc(NCc4ccco4)n2)CCCC3)cc1 [compound 78] | 58% | 99* % | 69% | 60* % | 0% | 0* % | 0% | 0% | 17* % | 0* % | – | –
6 | Cc1ccc(CNc2nccc(-c3c(-c4ccc(F)cc4)nn4c3CCCC4)n2)o1 [compound 79] | 76% | 99* % | 69% | 93* % | 0% | 0* % | 0% | 0% | 0* % | 0* % | – | –
7 | CN1CCCc2c(-c3ccnc(NC4CC4)n3)c(-c3ccc(F)cc3)nn21 [Compound 135, N-cyclopropyl-4-[2-(4-fluorophenyl)-4,5,6,7-tetrahydro-7-methylpyrazolo[1,5-b]pyridazin-3-yl]-2-pyrimidinamine] | – | – | – | – | – | – | – | – | – | – | – | pest or weed control at 200 ppm [1]: 95%; pest or weed control at 40 ppm [2]: 61%; pest or weed control at 40 ppm [3]: 84%; pest or weed control at 200 ppm [4]: 89%; pest or weed control at 40 ppm ([5]; Zymoseptoria tritici, 504 h, 40 ppm test suspension (*)): 90%; pest or weed control at 200 ppm ([6]; Colletotrichum orbiculare, 144 h, 200 ppm test suspension): 99%; pest or weed control at 40 ppm ([7]; Alternaria solani, 168 h, 40 ppm test suspension (*)): 99%; pest or weed control at 200 ppm [10]: 70%; pest or weed control at 200 ppm [11]: 0%; pest or weed control at 40 ppm [8, 12]: 70%
8 | Fc1ccc(-c2nn3c(c2-c2ccnc(NCC4CCOCC4)n2)CCCC3)cc1 [compound 80] | 82% | 98* % | 82% | 93* % | 0% | 68* % | 44% | 0% | 33* % | 0* % | – | –
9 | CC(CN1C(=O)c2ccccc2C1=O)Nc1nccc(-c2c(-c3ccc(F)cc3)nn3c2CCCC3)n1 (centres unmarked) [compound 71] | 0% | 0* % | 64% | 33* % | 0% | 0* % | 0% | – | 9* % | 97* % | 0* % | –
10 | Fc1ccc(-c2nn3c(c2-c2ccnc(NC4CCOCC4)n2)COCC3)cc1 [compound 129] | 0% | 100* % | 99% | 81* % | – | 95* % | 84% | 53% | 95* % | 100* % | 98* % | –
11 | CC(C)Nc1nccc(-c2c(-c3ccc(F)cc3)nn3c2COCC3)n1.Cl [compound 128] | 0% | 99* % | 99% | 94* % | 99% | 99* % | 89% | – | 100* % | 100* % | 96* % | –
